Laboratory results as given in patent publication US20130035326A1 (AMBIT BIOSCIENCES CORPORATION, priority 2009, published 2013).

Tests used:
KIT kinase = molecular target: T1, KIT kinase (Homo sapiens, UniProt P10721); assay: Competition binding assay, KIT Kd
T1 construct: made in house; host or cells: T7 phage display or HEK-293 cells
Outline: (§1)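 Equilibrium Kd measured by competition against immobilized ligand; kinase as T7 phage fusion or HEK-293 DNA-tagged protein; 1 h RT; qPCR read-out of eluate.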

[1] = molecular target: kinase panel containing either 359 or 386 distinct kinases; assay: Selectivity score S10 from competition binding against a panel of kinases; conditions: compounds at 10 μM; for Kinase specificty: S(10)-359 panel: panel of 359 distinct kinases; for Kinase specificty: S(10)-386 panel: panel of 386 distinct kinases
Experimental: Competition binding assays used herein were developed, validated and performed as described in Fabian et al., Nature Biotechnology 2005, 23,329-336. Kinases were produced as fusions to T7 phage (See, Fabian et al. or WO04/015142) or alternatively, the kinases were expressed in HEK-293 cells and subsequently tagged with DNA for PCR detection (See, WO08/005,310). For the binding assays, streptavidin-coated magnetic beads were treated with biotinylated affinity ligands for 30 min at room temperature to generate affinity resins. The liganded beads were blocked with excess biotin and washed with blocking buffer (SeaBlock (Pierce), 1% BSA, 0.05% Tween 20, 1 mM DTT) to remove unbound ligand and to reduce non-specific binding. Binding reactions were assembled by combining kinase, liganded affinity beads, and test compounds in 1× binding buffer (20% SeaBlock, 0.17×PBS, 0.05% Tween 20, 6 mM DTT). Test compounds were prepared as 100× stocks in DMSO and diluted into the aqueous environment. Kds were determined using an eleven point threefold serial dilutions. DMSO or control compounds were was added to control assays lacking a test compound. Primary screen assays were performed in polypropylene 384-well plates in a final volume of 20-40 μL, while Kd determinations were performed in polystyrene 96-well plates in a final volume of 135 μL. The assay plates were incubated at room temperature with shaking for 1 hour to allow the binding reactions to reach equilibrium, and the affinity beads were washed extensively with wash buffer (1×PBS, 0.05% Tween 20) to remove unbound protein. The beads were then resuspended in elution buffer (1×PBS, 0.05% Tween 20, 0.5 μM non-biotinylated affinity ligand) and incubated at room temperature with shaking for 30 min. The kinase concentration in the eluates was measured by quantitative PCR.
A selectivity score (S10) is a quantitative measure of selectivity of a compound against a panel of kinases. An S10 was calculated for a compound by dividing the number of kinases found to have a percent of control (DMSO) less than 10 by the total number of distinct kinases tested (excluding mutant variants). Percent of control (POC) is calculated by subtracting the signal of the control compound (POC=0) from the signal of the test compound and dividing the outcome by the signal of DMSO (POC=100) minus the signal of the control compound. For the compounds disclosed herein, S10 scores were obtained by testing the compounds at 10 μM concentration in a kinase panel containing either 359 or 386 distinct kinases.

FLT3 kinase = molecular target: T2, FLT3 kinase (Homo sapiens, UniProt P36888); assay: Competition binding assay, FLT3 Kd
T2 construct: made in house; host or cells: T7 phage display or HEK-293 cells
T2 sequence (P36888 27-993): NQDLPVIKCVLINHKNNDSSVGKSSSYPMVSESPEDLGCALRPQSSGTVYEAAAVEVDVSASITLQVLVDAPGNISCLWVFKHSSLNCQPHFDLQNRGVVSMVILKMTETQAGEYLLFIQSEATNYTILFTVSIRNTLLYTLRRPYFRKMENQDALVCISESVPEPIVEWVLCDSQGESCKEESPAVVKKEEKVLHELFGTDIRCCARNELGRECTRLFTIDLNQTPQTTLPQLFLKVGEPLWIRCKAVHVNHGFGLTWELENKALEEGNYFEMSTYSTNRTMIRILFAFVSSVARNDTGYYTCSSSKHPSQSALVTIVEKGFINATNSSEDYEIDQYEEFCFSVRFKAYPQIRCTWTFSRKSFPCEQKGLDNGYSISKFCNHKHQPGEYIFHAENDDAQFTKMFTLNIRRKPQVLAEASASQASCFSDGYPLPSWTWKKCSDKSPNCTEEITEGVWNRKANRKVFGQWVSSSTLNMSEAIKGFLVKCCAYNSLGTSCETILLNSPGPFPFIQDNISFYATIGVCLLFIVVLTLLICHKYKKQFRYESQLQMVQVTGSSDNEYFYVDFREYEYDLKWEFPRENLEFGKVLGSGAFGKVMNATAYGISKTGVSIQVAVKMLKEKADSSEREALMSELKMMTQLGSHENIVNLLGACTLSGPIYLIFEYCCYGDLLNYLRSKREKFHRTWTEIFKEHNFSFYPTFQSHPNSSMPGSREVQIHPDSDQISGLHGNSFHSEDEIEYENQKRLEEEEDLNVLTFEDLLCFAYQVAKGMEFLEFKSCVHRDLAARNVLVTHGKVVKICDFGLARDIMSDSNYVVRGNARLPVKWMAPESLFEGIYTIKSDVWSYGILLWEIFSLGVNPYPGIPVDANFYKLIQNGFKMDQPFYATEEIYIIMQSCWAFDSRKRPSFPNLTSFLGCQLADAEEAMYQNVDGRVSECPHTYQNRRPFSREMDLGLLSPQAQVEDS
Outline: as §1

CSF-1R kinase = molecular target: T3, CSF-1R kinase (Homo sapiens, UniProt P07333); assay: Competition binding assay, CSF-1R Kd
T3 construct: made in house; host or cells: T7 phage display or HEK-293 cells
Outline: as §1

MV4-11 cells = assay: MV4-11 cell proliferation assay (Alamar Blue); format: cell-based; conditions: Homo sapiens, MV4-11, 72 h, 3 days incubation
Outline: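 Viability readout: Alamar Blue fluorescence, ex 560/em 590 nm, 3 h after reagent addition, after 3-day exposure of 64,000 MV4-11 cells per well to a 9-point half-log compound series in 0.5% FBS Iscove's. IC50 from duplicate averages, as 50% proliferation inhibition relative to negative control.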

T1 sequence (P10721 26-976): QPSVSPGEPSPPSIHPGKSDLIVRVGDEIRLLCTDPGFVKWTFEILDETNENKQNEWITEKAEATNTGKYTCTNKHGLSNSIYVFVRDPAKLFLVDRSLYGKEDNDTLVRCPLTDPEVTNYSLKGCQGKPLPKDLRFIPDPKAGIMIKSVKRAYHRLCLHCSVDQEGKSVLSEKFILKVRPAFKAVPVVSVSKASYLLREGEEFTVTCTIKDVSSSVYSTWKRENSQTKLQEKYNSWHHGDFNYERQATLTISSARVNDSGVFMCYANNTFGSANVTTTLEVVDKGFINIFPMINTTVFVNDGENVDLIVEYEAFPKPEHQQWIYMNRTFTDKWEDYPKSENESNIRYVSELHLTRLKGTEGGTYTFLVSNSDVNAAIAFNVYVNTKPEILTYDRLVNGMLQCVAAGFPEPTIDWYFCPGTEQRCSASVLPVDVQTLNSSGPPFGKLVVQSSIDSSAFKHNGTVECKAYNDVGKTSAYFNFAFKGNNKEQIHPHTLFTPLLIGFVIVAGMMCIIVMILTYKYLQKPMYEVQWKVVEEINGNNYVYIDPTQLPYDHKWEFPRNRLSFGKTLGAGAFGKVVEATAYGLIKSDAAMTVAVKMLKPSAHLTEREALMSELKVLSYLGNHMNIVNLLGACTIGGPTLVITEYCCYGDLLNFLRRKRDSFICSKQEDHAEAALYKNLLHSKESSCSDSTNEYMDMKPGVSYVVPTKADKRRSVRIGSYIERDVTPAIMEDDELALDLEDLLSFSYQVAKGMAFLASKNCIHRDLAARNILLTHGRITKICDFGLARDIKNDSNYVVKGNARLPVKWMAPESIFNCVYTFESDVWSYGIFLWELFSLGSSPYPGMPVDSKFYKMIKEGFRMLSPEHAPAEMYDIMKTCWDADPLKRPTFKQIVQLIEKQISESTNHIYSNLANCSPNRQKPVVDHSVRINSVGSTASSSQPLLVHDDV
T3 sequence (P07333 20-972): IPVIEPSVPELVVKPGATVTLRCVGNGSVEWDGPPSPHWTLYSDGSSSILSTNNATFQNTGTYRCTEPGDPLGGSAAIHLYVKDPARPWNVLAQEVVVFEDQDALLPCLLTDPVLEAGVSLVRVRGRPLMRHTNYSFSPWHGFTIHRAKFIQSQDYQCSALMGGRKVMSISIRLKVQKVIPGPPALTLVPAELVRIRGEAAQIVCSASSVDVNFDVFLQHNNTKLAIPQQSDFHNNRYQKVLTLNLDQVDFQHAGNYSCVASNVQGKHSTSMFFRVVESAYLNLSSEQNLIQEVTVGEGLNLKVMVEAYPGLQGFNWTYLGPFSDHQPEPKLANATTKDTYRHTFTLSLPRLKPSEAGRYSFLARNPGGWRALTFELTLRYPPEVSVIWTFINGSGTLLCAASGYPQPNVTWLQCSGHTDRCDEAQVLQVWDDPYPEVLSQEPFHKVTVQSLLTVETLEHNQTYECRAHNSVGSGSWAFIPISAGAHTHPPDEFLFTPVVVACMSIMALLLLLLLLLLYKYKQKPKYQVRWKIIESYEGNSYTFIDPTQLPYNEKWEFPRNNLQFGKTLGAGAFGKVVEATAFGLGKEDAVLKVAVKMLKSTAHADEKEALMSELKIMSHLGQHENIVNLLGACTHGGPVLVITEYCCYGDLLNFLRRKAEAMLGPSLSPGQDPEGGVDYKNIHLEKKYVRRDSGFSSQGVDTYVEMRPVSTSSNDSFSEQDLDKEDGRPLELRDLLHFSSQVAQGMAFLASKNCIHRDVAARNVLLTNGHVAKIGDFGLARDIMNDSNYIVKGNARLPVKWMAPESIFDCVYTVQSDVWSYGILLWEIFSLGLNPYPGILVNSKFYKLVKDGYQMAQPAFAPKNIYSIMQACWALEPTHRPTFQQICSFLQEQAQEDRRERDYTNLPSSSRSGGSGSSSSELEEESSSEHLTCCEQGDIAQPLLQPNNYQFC

SMILES | Kd (KIT kinase) [nM] | Kinase specificty: S(10)-359 panel [1] | Kd (FLT3 kinase) [nM] | Kd (CSF-1R kinase) [nM] | IC50 (MV4-11 cells) [nM] | Kinase specificty: S(10)-386 panel [1]
CS(=O)(=O)O.Cc1cc(-c2ccc(CC(=O)Nc3cc(C4(C(F)(F)F)CC4)on3)cc2)cnc1N [Example 130] | – | – | – | – | – | A (A≦0.1)
Cc1nc(N)ccc1-c1ccc(NC(=O)Nc2cc(C(C)(C)C)on2)cc1 [Example 23, 1-(4-(6-amino-2-methylpyridin-3-yl)phenyl)-3-(5-tert-butylisoxazol-3-yl)urea] | 1 to 10 | A (A≦0.1) | ≤ 1 | ≤ 10 | 10 to 100 | –
CS(=O)(=O)O.Nc1ncc(-c2ccc(CC(=O)Nc3cc(C4(C(F)(F)F)CC4)on3)cc2)cc1F [Example 127] | – | – | – | – | – | B (0.1<B≦0.2 nM)
CC(C)(C)c1cc(NC(=O)Cc2ccc(-c3ccc(N)nc3C(F)(F)F)cc2)no1.CS(=O)(=O)O [Example 129] | – | – | – | – | – | A (A≦0.1)
CC(C)(C)c1cc(NC(=O)Nc2ccc(-c3cnc(CN4CCOCC4)nc3)cc2)no1 [Example 51, 1-(5-tert-butylisoxazol-3-yl)-3-(4-(2-(morpholinomethyl)pyrimidin-5-yl)phenyl)urea] | 1 to 10 | A (A≦0.1) | 10 to 100 | 100 to 500 | – | –
COc1cc(-c2cnc(N)nc2)ccc1NC(=O)Nc1cc(C(C)(C)C)on1 [Example 48, 1-[4-(2-aminopyrimidin-5-yl)-2-methoxy-phenyl]-3-(5-tert-butylisoxazol-3-yl)-urea] | 1 to 10 | A (A≦0.1) | 1 to 10 | ≤ 10 | – | –
CC(C)(c1cc(NC(=O)Cc2ccc(-c3ccc(N)nc3)cc2)no1)C(F)(F)F [Example 72, 5-(4-(2-oxo-2-(5-(1,1,1-trifluoro-2-methylpropan-2-yl)isoxazol-3-ylamino)ethyl)phenyl)pyridin-2-aminium acetate] | 1 to 10 | – | ≤ 1 | ≤ 10 | ≤ 1 | –
CC(C)(C)c1cc(NC(=O)Cc2ccc(-c3cnc(N)cc3F)cc2)on1 [Example 183] | 1 to 10 | – | ≤ 1 | ≤ 10 | ≤ 1 | –
CC(F)(F)C1(c2cc(NC(=O)Cc3ccc(-c4cnc(N)cc4F)cc3)no2)CC1 [Example 184] | 1 to 10 | – | ≤ 1 | ≤ 10 | ≤ 1 | –
CC1(c2cc(NC(=O)Cc3ccc(-c4cc(F)c(N)nc4F)cc3)no2)CC1 [Example 177] | 1 to 10 | – | ≤ 1 | ≤ 10 | ≤ 1 | –

Results, then the molecule that gave them:

Kd (KIT kinase) [nM] | Kinase specificty: S(10)-359 panel [1] | Kd (FLT3 kinase) [nM] | Kd (CSF-1R kinase) [nM] | IC50 (MV4-11 cells) [nM] | Kinase specificty: S(10)-386 panel [1] | SMILES
1 to 10 | A (A≦0.1) | 1 to 10 | 10 to 100 | 100 to 500 | – | CC(C)(C)Nc1ncc(-c2ccc(NC(=O)Nc3cc(C(C)(C)C)on3)nc2)cn1 [Example 62, 1-(5-(2-(tert-butylamino)pyrimidin-5-yl)pyridin-2-yl)-3-(5-tert-butylisoxazol-3-yl)urea]
≤ 1 | – | ≤ 1 | ≤ 10 | 1 to 10 | B (0.1<B≦0.2 nM) | Nc1ccc(-c2ccc(CC(=O)Nc3cc(C4(C(F)F)CC4)on3)cc2)cn1 [Example 149, 2-(4-(6-aminopyridin-3-yl)phenyl)-N-(5-(1-(difluoromethyl)cyclopropyl)isoxazol-3-yl)acetamide]
1 to 10 | – | ≤ 1 | ≤ 10 | ≤ 1 | B (0.1<B≦0.2 nM) | CNc1ccc(-c2ccc(CC(=O)Nc3cc(C(C)(C)C)on3)cc2)cn1.CS(=O)(=O)O [Example 110, 5-(4-(2-(5-tert-butylisoxazol-3-ylamino)-2-oxoethyl)phenyl)-N-methylpyridin-2-aminium methanesulfonate]
≤ 1 | – | ≤ 1 | ≤ 10 | 1 to 10 | B (0.1<B≦0.2 nM) | COc1cc(-c2ccc(CC(=O)Nc3cc(C4(C)CC4)on3)cc2)cnc1N [Example 164]
1 to 10 | – | ≤ 1 | ≤ 10 | ≤ 1 | B (0.1<B≦0.2 nM) | CC(C)(C)c1cc(NC(=O)Cc2c(F)cc(-c3ccc(N)nc3)cc2F)no1.CS(=O)(=O)O [Example 123, 5-(4-(2-(5-tert-butylisoxazol-3-ylamino)-2-oxoethyl)-3,5-difluorophenyl)pyridin-2-aminium methanesulfonate]
1 to 10 | – | 1 to 10 | ≤ 10 | ≤ 1 | B (0.1<B≦0.2 nM) | CC(C)(C)c1cc(NC(=O)Cc2ccc(-c3cnc(N)c(Cl)c3)cc2)no1.CS(=O)(=O)O [Example 115, 5-(4-(2-(5-tert-butylisoxazol-3-ylamino)-2-oxoethyl)phenyl)-3-chloropyridin-2-aminium methanesulfonate]
≤ 1 | – | ≤ 1 | ≤ 10 | ≤ 1 | – | CC(C)(C)c1cc(NC(=O)Cc2ccc(-c3cnc(N)c(C(N)=O)n3)cc2)no1 [Example 114, 5-(4-(2-(5-tert-butylisoxazol-3-ylamino)-2-oxoethyl)phenyl)-3-carbamoylpyrazin-2-aminium methanesulfonate]
≤ 1 | – | ≤ 1 | ≤ 10 | 1 to 10 | – | CC(CF)(CF)c1cc(NC(=O)Nc2ccc(-c3ccc(N)nc3)cn2)no1 [Example 41, 1-(6′-amino-3,3′-bipyridin-6-yl)-3-(5-(1,3-difluoro-2-methylpropan-2-yl)isoxazol-3-yl)urea]
≤ 1 | – | ≤ 1 | ≤ 10 | 10 to 100 | – | CC(C)(C)c1cc(NC(=O)Nc2ccc(-c3ccc(NCCN4CCCCC4)nc3)cc2F)no1 [Example 27, 1-(5-tert-butylisoxazol-3-yl)-3-(2-fluoro-4-(6-(2-(piperidin-1-yl)ethylamino)pyridin-3-yl)phenyl)urea]
≤ 1 | B (0.1<B≦0.2 nM) | ≤ 1 | ≤ 10 | – | – | CC(C)(C)c1cc(NC(=O)Nc2ccc(-c3cnc(NCCN4CCOCC4)nc3)cc2)no1 [Example 45, 1-(5-tert-butylisoxazol-3-yl)-3-{4-[2-(2-morpholin-4-yl-ethylamino)-pyrimidin-5-yl]phenyl}urea]
